# Patent US8247211B2, “Glycopeptide antibiotics” (American Cyanamid Company, priority 2001, dated 2012)
# Legend:
# Test in all cases: In vitro antibacterial evaluation: minimum inhibitory concentration (MIC), broth dilution method
# Format in all cases: cell-based
# Escherichia coli = settings: broth dilution, 18 hours at 35° C.
# Staphylococcus sp. = settings: broth dilution, 18 hours at 35° C.; for MIC Staphylococcus aureus-SMITH (GC 4543): strain SMITH GC 4543
# Outline: (§1)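 Broth dilution per NCCLS M7-A2 in Muller-Hinton II […], inoculum 5×10^5 CFU/mL, antibiotic tested over 64-0.06 μg/mL. MIC is taken as the lowest concentration that inhibits growth. Panel includes recent clinical isolates resistant to methicillin, penicillin and/or vancomycin.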
# Streptococcus sp. = settings: broth dilution, 18 hours at 35° C.
# Outline: as §1
# Enterococcus sp. = settings: broth dilution, 18 hours at 35° C.
# Outline: as §1
# [1] = Streptococcus agalactiae (GC 4564)
# [2] = Streptococcus pneumoniae (ATCC 6301)
# [3] = Streptococcus pneumoniae (GC 1894)
# [4] = Streptococcus pneumoniae (GC 4565)
# [5] = Streptococcus pyogenes (GC 4563)
# [6] = Enterococcus faecalis (ATCC 29212)
# [7] = Enterococcus faecalis (GC 2242)
# [8] = Enterococcus faecalis (GC 2691)
# [9] = Enterococcus faecalis (GC 3059)
# [10] = Enterococcus faecalis (GC 4552)
# [11] = Enterococcus faecalis (GC 4553)
# [12] = Enterococcus faecalis (GC 4554)
# [13] = Enterococcus faecalis (GC 6189)
smiles,measurement,setting,value
"CC(c1ccccc1)C1NC(=O)CNC(=O)C(CO)NC(=O)C(C(O)C2CNC(=N)N2C2OC(CO)C(O)C(O)C2O)NC(=O)C(C(O)C2CNC(=N)N2)NC(=O)C(Cc2ccc3oc(-c4ccc(N(C)C)cc4)nc3c2)NC1=O (stereo not drawn) [Example 29, Cyclo[3-[2-[4-(dimethylamino)phenyl]-1,3-benzoxazol-5-yl]alanyl-3-(2-iminoimidazolidin-4-yl)-seryl-3-(3-hexopyranosyl-2-iminoimidazolidin-4-yl)serylserylglycyl-β-methylphenyl-alanyl]]",MIC Escherichia coli (ATCC 25922),Escherichia coli,16 µg/mL
same,MIC Escherichia coli (GC 4559),Escherichia coli,16 µg/mL
same,MIC Escherichia coli (GC 4560),Escherichia coli,4 µg/mL
same,MIC Staphylococcus aureus-SMITH (GC 4543),Staphylococcus sp.,8 µg/mL
same,MIC Streptococcus agalactiae (GC 4564),Streptococcus sp.; [1],32 µg/mL
same,MIC Streptococcus pneumoniae (ATCC 6301),Streptococcus sp.; [2],32 µg/mL
same,MIC Streptococcus pneumoniae (GC 1894),Streptococcus sp.; [3],32 µg/mL
same,MIC Streptococcus pneumoniae (GC 4565),Streptococcus sp.; [4],32 µg/mL
same,MIC Streptococcus pyogenes (GC 4563),Streptococcus sp.; [5],16 µg/mL
same,MIC Streptococcus agalactiae (GC 4564),Streptococcus sp.,32 µg/mL
same,MIC Streptococcus pneumoniae (ATCC 6301),Streptococcus sp.,32 µg/mL
same,MIC Streptococcus pneumoniae (GC 1894),Streptococcus sp.,32 µg/mL
same,MIC Streptococcus pneumoniae (GC 4565),Streptococcus sp.,32 µg/mL
same,MIC Streptococcus pyogenes (GC 4563),Streptococcus sp.,16 µg/mL
same,MIC Enterococcus avium (GC 4558),Enterococcus sp.; Enterococcus avium (GC 4558),16 µg/mL
same,MIC Enterococcus faecalis (ATCC 29212),Enterococcus sp.; [6],32 µg/mL
same,MIC Enterococcus faecalis (GC 2242),Enterococcus sp.; [7],32 µg/mL
same,MIC Enterococcus faecalis (GC 2691),Enterococcus sp.; [8],32 µg/mL
same,MIC Enterococcus faecalis (GC 3059),Enterococcus sp.; [9],64 µg/mL
same,MIC Enterococcus faecalis (GC 4552),Enterococcus sp.; [10],64 µg/mL
same,MIC Enterococcus faecalis (GC 4553),Enterococcus sp.; [11],16 µg/mL
same,MIC Enterococcus faecalis (GC 4554),Enterococcus sp.; [12],32 µg/mL
same,MIC Enterococcus faecalis (GC 6189),Enterococcus sp.; [13],32 µg/mL
same,MIC Enterococcus faecium (GC 2243),Enterococcus sp.; Enterococcus faecium (GC 2243),16 µg/mL
same,MIC Enterococcus faecium (GC 4556),Enterococcus sp.; Enterococcus faecium (GC 4556),64 µg/mL
same,MIC Enterococcus faecium (GC 4557),Enterococcus sp.; Enterococcus faecium (GC 4557),8 µg/mL
same,MIC Enterococcus avium (GC 4558),Enterococcus sp.,16 µg/mL
same,MIC Enterococcus faecalis (ATCC 29212),Enterococcus sp.,32 µg/mL
same,MIC Enterococcus faecalis (GC 2242),Enterococcus sp.,32 µg/mL
same,MIC Enterococcus faecalis (GC 2691),Enterococcus sp.,32 µg/mL
same,MIC Enterococcus faecalis (GC 3059),Enterococcus sp.,64 µg/mL
same,MIC Enterococcus faecalis (GC 4552),Enterococcus sp.,64 µg/mL
same,MIC Enterococcus faecalis (GC 4553),Enterococcus sp.,16 µg/mL
same,MIC Enterococcus faecalis (GC 4554),Enterococcus sp.,32 µg/mL
same,MIC Enterococcus faecalis (GC 6189),Enterococcus sp.,32 µg/mL
same,MIC Enterococcus faecium (GC 2243),Enterococcus sp.,16 µg/mL
same,MIC Enterococcus faecium (GC 4556),Enterococcus sp.,64 µg/mL
same,MIC Enterococcus faecium (GC 4557),Enterococcus sp.,8 µg/mL
CC(c1ccccc1)C1NC(=O)CNC(=O)C(CO)NC(=O)C(C(O)C2CNC(=N)N2C2OC(CO)C(O)C(O)C2O)NC(=O)C(C(O)C2CNC(=N)N2)NC(=O)C(Cc2ccc3oc(SCc4ccc(-c5ccccc5)cc4)nc3c2)NC1=O (stereo not shown) [Example 47],MIC Escherichia coli (ATCC 25922),Escherichia coli,>64 µg/mL
same,MIC Escherichia coli (GC 4559),Escherichia coli,>64 µg/mL
same,MIC Escherichia coli (GC 4560),Escherichia coli,32 µg/mL
same,MIC Coagulase Negative Staphylococcus (GC 4547),Staphylococcus sp.,16 µg/mL
same,MIC Coagulase Negative Staphylococcus (GC 4548),Staphylococcus sp.,2 µg/mL
same,MIC Coagulase Negative Staphylococcus (GC 4549),Staphylococcus sp.,0.5 µg/mL
same,MIC Coagulase Negative Staphylococcus (GC 4551),Staphylococcus sp.,8 µg/mL
same,MIC Staphylococcus aureus SMITH (GC 4543),Staphylococcus sp.,8 µg/mL
same,MIC Staphylococcus haemolyticus (GC 4546),Staphylococcus sp.,8 µg/mL
same,MIC Staphylococcus aureus-SMITH (GC 4543),Staphylococcus sp.,8 µg/mL
same,MIC Streptococcus agalactiae (GC 4564),Streptococcus sp.; [1],2 µg/mL
same,MIC Streptococcus pneumoniae (ATCC 6301),Streptococcus sp.; [2],4 µg/mL
same,MIC Streptococcus pneumoniae (GC 1894),Streptococcus sp.; [3],2 µg/mL
same,MIC Streptococcus pneumoniae (GC 4565),Streptococcus sp.; [4],8 µg/mL
same,MIC Streptococcus pyogenes (GC 4563),Streptococcus sp.; [5],1 µg/mL
same,MIC Streptococcus agalactiae (GC 4564),Streptococcus sp.,2 µg/mL
same,MIC Streptococcus pneumoniae (ATCC 6301),Streptococcus sp.,4 µg/mL
same,MIC Streptococcus pneumoniae (GC 1894),Streptococcus sp.,2 µg/mL
same,MIC Streptococcus pneumoniae (GC 4565),Streptococcus sp.,8 µg/mL
same,MIC Streptococcus pyogenes (GC 4563),Streptococcus sp.,1 µg/mL
same,MIC Enterococcus avium (GC 4558),Enterococcus sp.; Enterococcus avium (GC 4558),2 µg/mL
same,MIC Enterococcus faecalis (ATCC 29212),Enterococcus sp.; [6],8 µg/mL
same,MIC Enterococcus faecalis (GC 2242),Enterococcus sp.; [7],4 µg/mL
same,MIC Enterococcus faecalis (GC 2691),Enterococcus sp.; [8],32 µg/mL
same,MIC Enterococcus faecalis (GC 3059),Enterococcus sp.; [9],32 µg/mL
same,MIC Enterococcus faecalis (GC 4552),Enterococcus sp.; [10],16 µg/mL
same,MIC Enterococcus faecalis (GC 4553),Enterococcus sp.; [11],4 µg/mL
same,MIC Enterococcus faecalis (GC 4554),Enterococcus sp.; [12],64 µg/mL
same,MIC Enterococcus faecalis (GC 6189),Enterococcus sp.; [13],32 µg/mL
same,MIC Enterococcus faecium (GC 2243),Enterococcus sp.; Enterococcus faecium (GC 2243),4 µg/mL
same,MIC Enterococcus faecium (GC 4556),Enterococcus sp.; Enterococcus faecium (GC 4556),8 µg/mL
same,MIC Enterococcus faecium (GC 4557),Enterococcus sp.; Enterococcus faecium (GC 4557),4 µg/mL
same,MIC Enterococcus avium (GC 4558),Enterococcus sp.,2 µg/mL
same,MIC Enterococcus faecalis (ATCC 29212),Enterococcus sp.,8 µg/mL
same,MIC Enterococcus faecalis (GC 2242),Enterococcus sp.,4 µg/mL
same,MIC Enterococcus faecalis (GC 2691),Enterococcus sp.,32 µg/mL
same,MIC Enterococcus faecalis (GC 3059),Enterococcus sp.,32 µg/mL
same,MIC Enterococcus faecalis (GC 4552),Enterococcus sp.,16 µg/mL
same,MIC Enterococcus faecalis (GC 4553),Enterococcus sp.,4 µg/mL
same,MIC Enterococcus faecalis (GC 4554),Enterococcus sp.,64 µg/mL
same,MIC Enterococcus faecalis (GC 6189),Enterococcus sp.,32 µg/mL
same,MIC Enterococcus faecium (GC 2243),Enterococcus sp.,4 µg/mL
same,MIC Enterococcus faecium (GC 4556),Enterococcus sp.,8 µg/mL
same,MIC Enterococcus faecium (GC 4557),Enterococcus sp.,4 µg/mL
"CC(c1ccccc1)C1NC(=O)CNC(=O)C(CO)NC(=O)C(C(O)C2CNC(=N)N2C2OC(CO)C(O)C(O)C2O)NC(=O)C(C(O)C2CNC(=N)N2)NC(=O)C(Cc2ccc3oc(SCc4ccccc4)nc3c2)NC1=O (stereo not drawn) [Example 45, Cyclo[3-[2-(benzylthio)-1,3-benzoxazol-5-yl]alanyl-3-(2-iminoimidazolidin-4-yl)seryl-3-(3-hexopyranosyl-2-iminoimidazolidin-4-yl)serylserylglycyl-β-methylphenylalanyl]]",MIC Escherichia coli (ATCC 25922),Escherichia coli,16 µg/mL
same,MIC Escherichia coli (GC 4559),Escherichia coli,16 µg/mL
same,MIC Escherichia coli (GC 4560),Escherichia coli,4 µg/mL
same,MIC Coagulase Negative Staphylococcus (GC 4547),Staphylococcus sp.,4 µg/mL
same,MIC Coagulase Negative Staphylococcus (GC 4548),Staphylococcus sp.,8 µg/mL
same,MIC Coagulase Negative Staphylococcus (GC 4549),Staphylococcus sp.,4 µg/mL
same,MIC Coagulase Negative Staphylococcus (GC 4551),Staphylococcus sp.,8 µg/mL
same,MIC Coagulase Negative Staphylococcus (GC 6257),Staphylococcus sp.,4 µg/mL
same,MIC Staphylococcus aureus SMITH (GC 4543),Staphylococcus sp.,8 µg/mL
same,MIC Staphylococcus haemolyticus (GC 4546),Staphylococcus sp.,4 µg/mL
same,MIC Staphylococcus aureus-SMITH (GC 4543),Staphylococcus sp.,8 µg/mL
same,MIC Streptococcus agalactiae (GC 4564),Streptococcus sp.; [1],16 µg/mL
same,MIC Streptococcus pneumoniae (ATCC 6301),Streptococcus sp.; [2],16 µg/mL
same,MIC Streptococcus pneumoniae (GC 1894),Streptococcus sp.; [3],16 µg/mL
same,MIC Streptococcus pneumoniae (GC 4565),Streptococcus sp.; [4],32 µg/mL
same,MIC Streptococcus pyogenes (GC 4563),Streptococcus sp.; [5],4 µg/mL
same,MIC Streptococcus agalactiae (GC 4564),Streptococcus sp.,16 µg/mL
same,MIC Streptococcus pneumoniae (ATCC 6301),Streptococcus sp.,16 µg/mL
same,MIC Streptococcus pneumoniae (GC 1894),Streptococcus sp.,16 µg/mL
same,MIC Streptococcus pneumoniae (GC 4565),Streptococcus sp.,32 µg/mL
same,MIC Streptococcus pyogenes (GC 4563),Streptococcus sp.,4 µg/mL
same,MIC Enterococcus avium (GC 4558),Enterococcus sp.; Enterococcus avium (GC 4558),8 µg/mL
same,MIC Enterococcus faecalis (ATCC 29212),Enterococcus sp.; [6],32 µg/mL
same,MIC Enterococcus faecalis (GC 2242),Enterococcus sp.; [7],16 µg/mL
same,MIC Enterococcus faecalis (GC 2691),Enterococcus sp.; [8],32 µg/mL
same,MIC Enterococcus faecalis (GC 3059),Enterococcus sp.; [9],32 µg/mL
same,MIC Enterococcus faecalis (GC 4552),Enterococcus sp.; [10],16 µg/mL
same,MIC Enterococcus faecalis (GC 4553),Enterococcus sp.; [11],16 µg/mL
same,MIC Enterococcus faecalis (GC 4554),Enterococcus sp.; [12],16 µg/mL
same,MIC Enterococcus faecalis (GC 6189),Enterococcus sp.; [13],16 µg/mL
same,MIC Enterococcus faecium (GC 2243),Enterococcus sp.; Enterococcus faecium (GC 2243),16 µg/mL
same,MIC Enterococcus faecium (GC 4556),Enterococcus sp.; Enterococcus faecium (GC 4556),32 µg/mL
same,MIC Enterococcus faecium (GC 4557),Enterococcus sp.; Enterococcus faecium (GC 4557),4 µg/mL
same,MIC Enterococcus avium (GC 4558),Enterococcus sp.,8 µg/mL
same,MIC Enterococcus faecalis (ATCC 29212),Enterococcus sp.,32 µg/mL
same,MIC Enterococcus faecalis (GC 2242),Enterococcus sp.,16 µg/mL
same,MIC Enterococcus faecalis (GC 2691),Enterococcus sp.,32 µg/mL
same,MIC Enterococcus faecalis (GC 3059),Enterococcus sp.,32 µg/mL
same,MIC Enterococcus faecalis (GC 4552),Enterococcus sp.,16 µg/mL
same,MIC Enterococcus faecalis (GC 4553),Enterococcus sp.,16 µg/mL
same,MIC Enterococcus faecalis (GC 4554),Enterococcus sp.,16 µg/mL
same,MIC Enterococcus faecalis (GC 6189),Enterococcus sp.,16 µg/mL
same,MIC Enterococcus faecium (GC 2243),Enterococcus sp.,16 µg/mL
same,MIC Enterococcus faecium (GC 4556),Enterococcus sp.,32 µg/mL
same,MIC Enterococcus faecium (GC 4557),Enterococcus sp.,4 µg/mL
